Test [1] concerns the target T1, 5-HT2 (Rattus norvegicus, UniProt P14842).
T1 construct: from tissue; host or cells: whole anaesthetised male Sprague-Dawley rat in vivo (vasculature; arterial blood pressure recorded)
Kind of test: 5-HT2 antagonism: inhibition of hypertensive response to 5-hydroxytryptamine. The class given is in vivo, rat (male Sprague-Dawley). To be noted: iv, 10 min, i.v., cumulative doses, 5-hydroxytryptamine 100 μg/kg i.v., prazosin pretreatment, read-out: ID50, dose inhibiting the hypertensive response by 50%. How it is done:
Male Sprague-Dawley rats (350-400 g) are anesthetized i.p. with pentobarbital (45 mg/kg). The trachea is cannulated and the animals are subjected to artificial respiration. The vagus nerves are sectioned. A catheter is placed in a carotid artery to record the arterial blood pressure. A second catheter is placed in the vein of the penis and is used for the injections. The animals' temperature is taken and is maintained at 37° C. The rats are pretreated with d-tubocurarine (1 mg/kg i.v.) an prazosin (1 mg/kg i.v.). 5-Hydroxytryptamine is injected i.v. at a dose of 100 μg/kg twice, separated by an interval of 10 minutes, so as to determine the rise in the systolic arterial blood pressure of each rat 10 minutes later, the compounds of the invention are injected at the lowest dose and injection of 5-hydroxytryptamine is performed again 10 minutes later. 3 or 4 cumulative doses of the compounds of the invention are tested in the same manner. The percentages of the hypertensive response which are obtained at the different doses are calculated in order to determine the ID50, the dose inhibiting the hypertensive response by 50%.

The subject of test [2] is 5-HTP. Kind of test: 5-HTP antagonism: forepaw treading, flat body posture and head twitches induced by 5-hydroxytryptophan. The format is in vivo, rat (female Wistar). Conditions: Rattus norvegicus. As for the experimental part:
4 Female Wistar rats (270±30 g), fasted for approximately 24 hours, are used. At the beginning of the test, they are administered the "control" solution or solutions of 5-hydroxytryptophan at a dose of 320 mg/kg. The animals are then placed under observation in transparent cages. Three parameters are assessed in the study: "forepaw treading", "flat body posture" and "head twitches". "Forepaw treading" corresponds to a pedalling motion of the forelimbs. This parameter is measured 80 minutes after the administration of 1,5-hydroxytryptophan and during a ten-minute observation period. This time is divided into 5- second periods and, if a movement is observed in this period, a score of 1 is assigned, the maximum score being […] for the ten minutes of observation and for each animal. The parameter "head twitches" relates to the number of twitches of the head of the animals observed during 10 minutes. This parameter is assessed 90 minutes after the administration of 1,5-hydroxytryptophan and during a 10- minute period. "Flat body posture" corresponds to a flattening of the body which lasts for more than 10 minutes. This parameter is assessed throughout the period of observation of the animals.

Test [3] relates to α1 receptor. To be noted: in words; cited from earlier work.
The mark [4] stands for this setting: sc, subcutaneously, 5-hydroxytryptophan 320 mg/kg, Table IV, read-out: ED50 FBP (flat body posture).
Where [5] appears, read: sc, subcutaneously, 5-hydroxytryptophan 320 mg/kg, Table IV, read-out: ED50 FPT (forepaw treading).
Setting [6] is: sc, read-out: ED50 HT (head twitches).

Counter-ions that a name gives are not always drawn. Like-named read-outs stand apart in the source and are kept apart here. A value given as a limit tells only on which side of the number the result lay.

T1 sequence (P14842 whole entry): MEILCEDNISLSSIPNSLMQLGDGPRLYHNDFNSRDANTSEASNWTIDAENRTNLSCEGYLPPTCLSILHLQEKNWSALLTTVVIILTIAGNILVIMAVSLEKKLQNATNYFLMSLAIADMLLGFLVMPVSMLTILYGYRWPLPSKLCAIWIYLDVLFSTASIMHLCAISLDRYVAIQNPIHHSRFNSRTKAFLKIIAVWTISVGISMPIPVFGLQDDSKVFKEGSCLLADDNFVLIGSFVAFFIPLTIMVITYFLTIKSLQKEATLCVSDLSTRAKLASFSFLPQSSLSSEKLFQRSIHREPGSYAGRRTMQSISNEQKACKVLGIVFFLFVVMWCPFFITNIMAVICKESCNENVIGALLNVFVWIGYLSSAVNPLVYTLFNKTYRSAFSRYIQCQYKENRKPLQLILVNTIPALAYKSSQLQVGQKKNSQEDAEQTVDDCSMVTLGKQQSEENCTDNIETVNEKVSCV

Consider `O=C(CC1CCCN(CCCN2C(=O)CN(Cc3ccccc3F)CC2=O)C1)c1ccc(F)cc1` (stereo not shown) [EXAMPLE 6, 4-(2-Fluorobenzyl)-1-{3-[3-4-fluorophenacyl)piperidino]propyl)}piperazine 2,6-dione ditartrate], for which the ED50 in test [1] was 0.0037 mg/kg; in test [2] (setting [4]), 1.25 mg/kg; in test [2] (setting [5]) it was 2.5 mg/kg.

As for `COc1cccc(CN2CC(=O)N(CCCN3CCC(C(=O)c4ccc(F)cc4)CC3)C(=O)C2)c1.Cl` [EXAMPLE 18, 1-{3-[4-(4-Fluorobenzoyl)piperidino]propyl}-4-(3-methoxybenzyl) piperazine 2,6-dione hydrochloride], the ED50 worked out at 2.5 mg/kg in test [2] (setting [4]) and 5 mg/kg in test [2] (setting [5]).

Take `Cc1cccc(CN2CC(=O)N(CCCN3CCC(C(=O)c4ccc(F)cc4)CC3)C(=O)C2)c1.Cl` [EXAMPLE 15, 1-{3-[4-(4-Fluorobenzoyl)piperidino]propyl}-4-(3-methylbenzyl) piperazine 2,6-dione hydrochloride]: the values for the ED50 in test [2] (setting [6]), in test [2] (setting [4]) and in test [2] (setting [5]) were 5 mg/kg, 2.5 mg/kg and 10 mg/kg, respectively.

As for `O=C(CC1CCN(CCCN2C(=O)CN(Cc3ccccc3F)CC2=O)C1)c1ccc(F)cc1.O=C(O)C(O)C(O)C(=O)O` (stereo not shown) [EXAMPLE 5, 4-(2-Fluorobenzyl)-1-{3-[3-(4-fluorophenacyl)-1-pyrrolidinyl]propyl}piperazine 2,6-dione tartrate], the ED50 in test [2] (setting [6]) is more than 10 mg/kg; in test [2] (setting [4]), 0.31 mg/kg; in test [2] (setting [5]), 10 mg/kg.

As for `Cc1nc2c(C(N)=O)ncn2c(O)c1CCN1CCC(C(=O)c2ccc(F)cc2)CC1` [EXAMPLE 8, 8-Carbamoyl-3-{2-[4-(4-fluorobenzoyl)piperidino]-ethyl}-4-hydroxy-2-methylimidazol[1,5-a]pyrimidine hydrochloride], the ED50 is 0.018 mg/kg in test [1]; more than 10 mg/kg in test [2] (read-out: ED50 HT (head twitches)); 0.63 mg/kg in test [2] (Table V, route not given, 5-hydroxytryptophan 320 mg/kg, read-out: ED50 FBP (flat body posture)); 10 mg/kg in test [2] (Table V, route not given, 5-hydroxytryptophan 320 mg/kg, read-out: ED50 FPT (forepaw treading)).

As for `O=C(CC1CCN(CCn2c(=O)[nH]c3ccccc3c2=O)C1)c1ccc(F)cc1` (stereo not shown) [EXAMPLE 10, 2,4-Dioxo-3-{2-[3-(4-fluorophenacyl)-1-pyrrolidinyl]ethyl}-1,2,3,4-tetrahydrocuinazoline hydrochloride], the ED50 was found to be 0.0054 mg/kg in test [1], 2.5 mg/kg in test [2] (setting [6]), 0.16 mg/kg in test [2] (setting [4]) and 0.31 mg/kg in test [2] (setting [5]).

On to `O=C(c1ccc(F)cc1)C1CCN(CCn2c(=O)[nH]c3ccccc3c2=O)CC1` [KETANSERIN], for which the α1 antagonist activity result in test [3] is reported as “devoid of α1 antagonist activity”.

On to `Cl.O=C(c1ccc(F)cc1)C1CCN(CCCN2C(=O)CN(Cc3ccccc3F)CC2=O)CC1` [EXAMPLE 2, 1-{3-[4-(4-Fluorobenzoyl)piperidino]propyl}-4-(2-fluorobenzyl) piperazine 2,6-dione hydrochloride], for which the ED50 came to 0.014 mg/kg in test [1], 5 mg/kg in test [2] (setting [6]), 0.31 mg/kg in test [2] (setting [4]) and 10 mg/kg in test [2] (setting [5]).

With `Cc1nc2c(C#N)ncn2c(O)c1CCN1CCC(C(=O)c2ccc(F)cc2)CC1` [EXAMPLE 1, 8-Cyano-3-{2-[4-(4-fluorobenzoyl)piperidino]ethyl}-4-hydroxy-2-methylimidazo[l,5-a]pyrimidine hydrochloride], the ED50 in test [1] is 0.0045 mg/kg; in test [2] (setting [6]), more than 40 mg/kg; in test [2] (setting [4]) it was 0.04 mg/kg; in test [2] (setting [5]) it was 40 mg/kg.

As for `Cc1nc2c(C(N)=O)ncn2c(O)c1CCN1CCC(CC(=O)c2ccc(F)cc2)C1.Cl` (stereo not shown) [EXAMPLE 9, 8-Carbamoyl-3-{2-[3-(4-fluorophenacyl)-1-pyrrolidinyl]ethyl}-4-hydroxy-2-methylimidazo[1,5-a]pyrimidine hydrochloride], the ED50 in test [1] is 0.01 mg/kg.

Consider `Cl.Cl.O=C(c1ccc(F)cc1)C1CCN(CCCN2CCN(c3ncccn3)CC2)CC1` [EXAMPLE 7, 1-{3-[4-(4-Fluorobenzoyl)piperidino]propyl}-4-(2-pyrimidinyl) -piperazine dihydrochloride], for which the ED50 was more than 10 mg/kg in test [2] (setting [6]), 1.25 mg/kg in test [2] (setting [4]) and 1.25 mg/kg in test [2] (setting [5]).

For the compound `Cl.Cl.O=C(c1ccc(F)cc1)C1CCN(CCN2CCN(c3ncccn3)CC2)CC1` [EXAMPLE 21, 4-{2-[4-(4-Fluorobenzoyl)piperidino]ethyl}-1-(2-pyrimidinyl) piperazine dihydrochloride], the ED50 worked out at 1.25 mg/kg in test [2] (setting [6]), 0.63 mg/kg in test [2] (setting [4]) and 2.5 mg/kg in test [2] (setting [5]).

For the compound `Cl.O=C(c1ccc(F)cc1)C1CCN(CCCCN2C(=O)CN(Cc3ccccc3F)CC2=O)CC1` [EXAMPLE 4, 1-{4-[4-(4-Fluorobenzoyl)piperidino]butyl}-4-(2-fluorobenzyl) piperazine 2,6-dione hydrochloride], the values for the ED50 in test [2] (setting [4]) and in test [2] (setting [5]) were 10 mg/kg and 5 mg/kg, respectively.

Regarding `Cl.O=C(c1ccc(F)cc1)C1CCN(CCCN2C(=O)CN(Cc3ccccn3)CC2=O)CC1` [EXAMPLE 3, 1-{3-[4-(4-Fluorobenzoyl)piperidino]propyl}-4-(2-pyridylmethyl) piperazine 2,6-dione hydrochloride], the values for the ED50 in test [2] (setting [6]), in test [2] (setting [4]) and in test [2] (setting [5]) were 5 mg/kg, 0.31 mg/kg and 1.25 mg/kg, respectively.
